Experimental data from article PMC6539495, “Anti-Cancer Activity of Novel Dihydrotestosterone-Derived Ring A-Condensed Pyrazoles on Androgen Non-Responsive Prostate Cancer Cell Lines” (International Journal of Molecular Sciences, 2019).

Experiments:
[1] = test system: HeLa cells; assay: MTT cell viability assay on HeLa cervical cancer cells; type: cell-based, human; conditions: 72 hours
Procedure: (§1) HeLa, MCF-7 and MDA-MB-231 cells were obtained from Sigma-Aldrich and maintained as reported previously. MRC-5, PC-3, DU 145 cells were purchased from American Type Culture Collection (ATCC, Manassas, VA, USA). PC-3 and DU 145 were maintained in RPMI medium (Sigma-Aldrich) whereas MRC-5 cells were maintained in DMEM medium (Sigma-Aldrich). All media were complemented with 10% Fetal bovine serum (FBS, Sigma-Aldrich) 2 mM L-glutamine, 0.01% streptomycin and 0.005% ampicillin (Sigma-Aldrich). Cells were cultured under standard conditions in a 37 °C incubator containing 5% CO2 in 95% humidity.
(§2) Each test compound was dissolved in cell culture grade DMSO (Molar Chemicals, Halásztelek, Hungary) in a final concentration of […]. Antiproliferative action of the synthesized steroids was investigated by MTT assay. An amount of 5000 cells/well were seeded into 96 well plates. Twenty-four hours post seeding, all cell lines were treated with each compound in 10 and 30 μM concentrations for 72 hours. […] After 72 hours, cells were washed with PBS and incubated with culture medium containing 0.5 mg/mL MTT (3-(4, 5-dimethylthiazolyl-2)-2,5-diphenyltetrazolium bromide) reagent (SERVA, GmbH, Heidelberg, Germany) for an hour at 37 °C. Formazan crystals were solubilized in DMSO and extinction was measured at 570 nm using a Synergy HTX plate reader (BioTech-Hungary, Budapest, Hungary). MTT assays were performed at least three times using four independent biological replicates. Data were normalized to solvent controls and the graphical representation of the obtained data as well as the calculation of IC50 values were carried out by GraphPad Prism 7 software (GraphPad Software; San Diego, CA, USA).

[2] = test system: MRC-5 cells; assay: MTT cell viability assay on non-cancerous MRC-5 fibroblasts; type: cell-based; conditions: 72 hours, MTT
Procedure: as §1, §2

[3] = test system: MDA-MB-231 cells; assay: MTT cell viability assay on MDA-MB-231 breast cancer cells; type: cell-based, human; conditions: 72 hours
Procedure: as §1, §2

[4] = test system: MCF-7 cells; assay: MTT cell viability assay on MCF-7 breast cancer cells; type: cell-based, human; conditions: 72 hours
Procedure: as §1, §2

[5] = test system: PC-3 cells; assay: MTT cell viability assay on PC-3 prostate cancer cells; type: cell-based, human; conditions: for Mean values (%) of primary growth inhibitory screen (viability in %), PC-3: 72 hours, MTT
Procedure: as §1, §2

[6] = test system: DU 145 cells; assay: MTT cell viability assay on DU 145 prostate cancer cells; type: cell-based, human; conditions: 72 hours
Procedure: as §1, §2

Cc1ccc(-n2nc3c(c2C)CC2(C)C(CCC4C5CCC(=O)C5(C)CCC42)C3)cc1 (stereo not drawn) [5c, 1′-(4″-Tolyl)-5′-methylpyrazolo[3′,4′:3,2]-5α-androst-17-one]
Mean values (%) of primary growth inhibitory screen (viability in %), HeLa ([1]; 10 µM): 46.3% | Mean values (%) of primary growth inhibitory screen (viability in %), HeLa ([1]; 30 µM): 38.5% | Mean values (%) of primary growth inhibitory screen (viability in %), MRC-5 ([2]; 10 µM): 89.1% | Mean values (%) of primary growth inhibitory screen (viability in %), MRC-5 ([2]; 30 µM): 62.5% | Mean values (%) of primary growth inhibitory screen (viability in %), MDA-MB-231 ([3]; 10 µM): 78.7% | Mean values (%) of primary growth inhibitory screen (viability in %), MDA-MB-231 ([3]; 30 µM): 66.2% | Mean values (%) of primary growth inhibitory screen (viability in %), MCF-7 ([4]; 10 µM): 63.6% | Mean values (%) of primary growth inhibitory screen (viability in %), MCF-7 ([4]; 30 µM): 48.7% | Mean values (%) of primary growth inhibitory screen (viability in %), PC-3 ([5]; 10 µM): 68.1% | Mean values (%) of primary growth inhibitory screen (viability in %), PC-3 ([5]; 30 µM): 43.6% | Mean values (%) of primary growth inhibitory screen (viability in %), DU 145 ([6]; 10 µM): 86.3% | Mean values (%) of primary growth inhibitory screen (viability in %), DU 145 ([6]; 30 µM): 51.1%

Cc1ccc(-n2nc3c(c2C)C[C@@]2(C)[C@@H](CC[C@@H]4[C@@H]2CC[C@]2(C)C(=O)CC[C@@H]42)C3)c(C)c1 [5d, 1′-(2″,4″-Dimethylphenyl)-5′-methylpyrazolo[3′,4′:3,2]-5α-androst-17-one]
Mean values (%) of primary growth inhibitory screen (viability in %), HeLa ([1]; 10 µM): 39.5% | Mean values (%) of primary growth inhibitory screen (viability in %), HeLa ([1]; 30 µM): 30.7% | Mean values (%) of primary growth inhibitory screen (viability in %), MRC-5 ([2]; 10 µM): 80.1% | Mean values (%) of primary growth inhibitory screen (viability in %), MRC-5 ([2]; 30 µM): 21.3% | Mean values (%) of primary growth inhibitory screen (viability in %), MDA-MB-231 ([3]; 10 µM): 77.2% | Mean values (%) of primary growth inhibitory screen (viability in %), MDA-MB-231 ([3]; 30 µM): 54.1% | Mean values (%) of primary growth inhibitory screen (viability in %), MCF-7 ([4]; 10 µM): 56.3% | Mean values (%) of primary growth inhibitory screen (viability in %), MCF-7 ([4]; 30 µM): 13.3% | Mean values (%) of primary growth inhibitory screen (viability in %), PC-3 ([5]; 10 µM): 52.1% | Mean values (%) of primary growth inhibitory screen (viability in %), PC-3 ([5]; 30 µM): 14.6% | Mean values (%) of primary growth inhibitory screen (viability in %), DU 145 ([6]; 10 µM): 65.6% | Mean values (%) of primary growth inhibitory screen (viability in %), DU 145 ([6]; 30 µM): 10.0%

COc1ccc(-n2nc3c(c2C)C[C@@]2(C)[C@@H](CC[C@@H]4[C@@H]2CC[C@]2(C)C(=O)CC[C@@H]42)C3)cc1 [5e, 1′-(4″-Methoxyphenyl)-5′-methylpyrazolo[3′,4′:3,2]-5α-androst-17-one]
Mean values (%) of primary growth inhibitory screen (viability in %), HeLa ([1]; 10 µM): 38.4% | Mean values (%) of primary growth inhibitory screen (viability in %), HeLa ([1]; 30 µM): 41.8% | Mean values (%) of primary growth inhibitory screen (viability in %), MRC-5 ([2]; 10 µM): 79.3% | Mean values (%) of primary growth inhibitory screen (viability in %), MRC-5 ([2]; 30 µM): 79.3% | Mean values (%) of primary growth inhibitory screen (viability in %), MDA-MB-231 ([3]; 10 µM): 72.0% | Mean values (%) of primary growth inhibitory screen (viability in %), MDA-MB-231 ([3]; 30 µM): 61.5% | Mean values (%) of primary growth inhibitory screen (viability in %), MCF-7 ([4]; 10 µM): 53.5% | Mean values (%) of primary growth inhibitory screen (viability in %), MCF-7 ([4]; 30 µM): 36.3% | Mean values (%) of primary growth inhibitory screen (viability in %), PC-3 ([5]; 10 µM): 45.5% | Mean values (%) of primary growth inhibitory screen (viability in %), PC-3 ([5]; 30 µM): 29.7% | antiproliferative potency against PC-3 prostate cancer cells compared to MRC-5 non-cancerous fibroblasts ([5]; 30 µM, primary screen): significantly higher | Mean values (%) of primary growth inhibitory screen (viability in %), DU 145 ([6]; 10 µM): 62.1% | Mean values (%) of primary growth inhibitory screen (viability in %), DU 145 ([6]; 30 µM): 48.1%
